{"source": "patent US10080789B2", "about": "“Programming of cells for tolerogenic therapies” (President and Fellows of Harvard College, priority 2009, dated 2018)", "key": {"[1]": {"biological_target": "T1, T cell-specific potassium channel Kv1.3 (Rattus norvegicus, UniProt P15384)", "T1 construct": "endogenous in cells", "T1 sequence (P15384 whole entry)": "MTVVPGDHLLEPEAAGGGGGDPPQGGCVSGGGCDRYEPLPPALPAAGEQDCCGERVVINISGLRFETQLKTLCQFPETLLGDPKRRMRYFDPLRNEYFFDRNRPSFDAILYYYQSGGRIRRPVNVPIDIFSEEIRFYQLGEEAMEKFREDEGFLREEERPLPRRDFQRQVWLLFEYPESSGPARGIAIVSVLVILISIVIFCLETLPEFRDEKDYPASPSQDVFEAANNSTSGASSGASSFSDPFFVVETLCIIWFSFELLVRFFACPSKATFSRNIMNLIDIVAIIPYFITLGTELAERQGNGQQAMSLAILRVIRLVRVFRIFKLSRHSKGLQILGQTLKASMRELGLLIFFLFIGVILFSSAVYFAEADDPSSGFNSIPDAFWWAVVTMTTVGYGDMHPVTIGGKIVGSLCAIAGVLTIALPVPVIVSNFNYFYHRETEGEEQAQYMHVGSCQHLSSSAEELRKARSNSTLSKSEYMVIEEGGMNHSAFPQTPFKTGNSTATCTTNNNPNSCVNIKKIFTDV", "conditions": "cited from earlier work"}, "[2]": {"system": "mononuclear cells isolated from the bone marrow (BM) of C57BL/6 mice", "assay": "In vitro induction of DC from bone marrow mononuclear cells, phenotype and cytokine production", "format": "cell-based", "conditions": "for expression of the proinflammatory cytokines IL-6 and IL-12 by induced DC: GM-CSF in presence of named factor, bacterial stimulation, vs DC induced by GM-CSF alone; for CD11c+/CD86+ in total BM cells: 7 day incubation of BM cells with GM-CSF with or without the named factor", "source_text": "FIGS. 5F (Table 1) and 5A-E reflect the potency of a material system that delivers TSLP and GM-CSF to PD lesion in induction of tolerogenic DC. […] The surface phenotypes of CD11c+DC in the BM culture were monitored by flow cytometry and the proportionality of each phenotype is expressed as a percent (%) of the total mononuclear cells (MNC) (FIG. 5F, Table 1).\nThe present invention provides for a material-based local application of GM-CSF with appropriate DC influencing factors that leads to tolerogenic DCs (tDCs), and subsequent enrichment of iTreg cells. Candidate biofactors include thymic stromal lymphopoietin (TSLP), vasoactive intestinal peptide (VIP), and transforming growth factor-beta (TGF-β). Screening is based on the induced DC's anti-inflammatory properties. […] Overall, these observations that the combination of GM-CSF with TSLP efficiently induces DC with an anti-inflammatory phenotype."}, "CD11c(+)CD86(+) DCs": {"system": "CD11c(+)CD86(+) DCs", "assay": "In vivo DC recruitment to subcutaneously implanted GM-CSF loaded polymers", "set-up": "species or system C57BL/6J mice", "conditions": "polymers loaded with 3 μg GM-CSF", "source_text": "(§1) Numbers in FACS plots indicate the percentage of the cell population positive for both markers. FIG. 4D is the percentage of total cells that were positive for the DC markers CD11c and CD86, in blank (-∘-) and GM-CSF (-●-) loaded polymers as a function of time post implantation. […] Scale bar—500 μm. Values in FIGS. 4A, 4D, 4E, and 4F represent mean and standard deviation (n=4 or 5); *P<0.05; **P<0.01.\n(§2) The polymer delivery vehicle presents GM-CSF in a defined spatiotemporal manner in vivo, following introduction into the tissue of interest. […]\nGels with various combinations of factors are injected into gingival of mice. […] To analyze DC recruitment, gels and surrounding tissue are excised at various time-points and the tissue digested into single cell suspensions using a collagenase solution (Worthingtion, 250 U/ml) that was agitated at 37° C. for 45 min The cell suspensions are then poured through a […] cell strainer to isolate cells from gel particles and the cells are pelleted and washed with cold PBS and counted using a Z2 coulter counter (Beckman Coulter). […] Cells are gated according to positive labels using isotype controls, and the percentage of cells staining positive for each surface antigen is recorded."}, "[3]": {"assay": "Release profile of GM-CSF from polymer delivery vehicle", "format": "physicochemical", "conditions": "within the first 5 days; then slow sustained release over next 10 days", "source_text": "as §1, §2\nTo determine the efficiency of GM-CSF, TSLP, and pDNA incorporation and the kinetics of release, ^125I-labeled factors (Perkin Elmer) are utilized as a tracer, and gels and placed in Phosphate Buffer Solution (PBS) (37° C.). At various time points, the PBS release media is collected and amount of ^125I-factor released from the scaffolds is determined at each time point using a gamma counter and normalizing to the total ^125I-factor incorporated into the gels. To asses the retention of GM-CSF bioactivity, loaded gels are placed in the top wells of 6.5 mm transwell dishes (Costar, Cambridge, Mass.) with a pore size of 3 μm and the proliferation of JAWS II cells (DC cell line) cultured in the bottom wells is evaluated at various time points using cell counts from a hemacytometer. […]"}, "JAWSII DCs": {"system": "JAWSII DCs", "assay": "JAWSII DC recruitment, proliferation, emigration and activation in vitro (transwell)", "format": "cell-based", "description": "FIGS. 3A-D show data related to the concentration dependent effects of GM-CSF on DC proliferation, recruitment, activation and emigration in vitro. […] Migration counts measured at 12 hours. FIG. 3B is the effects of GM-CSF concentration on the proliferation of JAWSII DCs. 0 (white bar), 50 (grey bar), and 500 ng/ml (black bar) of GM-CSF. […] Migration counts taken at 6 hours. FIG. 3D are representative photomicrographs of TNF-α and LPS stimulated JAWSII DCs cultured in 5-50 or 500 ng/ml GM-CSF and stained for the activation markers MHCII and CCR7. Scale bar in FIG. 3D—20 μm. Values in FIGS. 3A-C represent mean and standard deviation (n=4); *P<0.05; **P<0.01\nMigration assays are performed with 6.5 mm transwell dishes (Costar, Cambridge, Mass.) with a pore size of 5 μm. The effects of GM-CSF and TSLP, (Invivogen, San Diego, Calif.) on the migration of DCs are assessed by placing recombinant murine GM-CSF and TSLP in the bottom wells and 5×10^5 DCs in the top wells. To assess the effects of GM-CSF and TSLP on DC activation, cells are cultured with bacterial stimulation (fixed Aa, fixed P. gingivalis, Aa-LPS or Pg-LPS along) with various concentrations of TSLP and GM-CSF for 24 hours and then the cells are washed and fixed in 10% formalin. The cells are prepared for fluorescence immunohistochemistry as per below, and examined using fluorescent microscopy (Olympus, Center Valley, Pa.). Cells are also analyzed by FACS, and gated according to positive stains using isotype controls, and the percentage of cells staining positive for each surface antigen will be recorded."}}, "note": "Where no end group is shown, it is not given here.", "data": [{"substance": "Kaliotoxin", "values": [{"measurement": "RANKL production by activated rat T cells", "setting": "[1]", "value": "inhibits"}]}, {"substance": "thymic stromal lymphopoietin [TSLP]", "values": [{"measurement": "expression of the proinflammatory cytokines IL-6 and IL-12 by induced DC", "setting": "[2]", "value": "diminished expression"}]}, {"substance": "granulocyte-macrophage colony stimulating factor [GM-CSF]", "values": [{"measurement": "total cellular infiltration at the site", "setting": "CD11c(+)CD86(+) DCs; dorsal subcutaneous, day-14, vs control", "value": "significantly enhanced"}, {"measurement": "total cell number and percentage of infiltrating cells that were CD11c(+)CD86(+) DCs", "setting": "CD11c(+)CD86(+) DCs; subcutaneous", "value": "increased"}, {"measurement": "CD11c+/CD86+ in total BM cells", "setting": "[2]", "value": 14.7, "unit": "%"}, {"measurement": "bioactive GM-CSF load released", "setting": "[3]", "value": "approximately 60%"}, {"measurement": "DC recruitment and proliferation", "setting": "JAWSII DCs; JAWSII DCs in vitro", "value": "enhanced DC recruitment and proliferation in a dose-dependent manner"}, {"measurement": "DC activation via TNF-α and LPS stimulation (MHCII and CCR7 expression)", "setting": "JAWSII DCs; high concentrations of GM-CSF", "value": "suppressed DC activation"}, {"measurement": "GM-CSF concentrations that inhibited DC migration toward the LN-derived chemokine CCL19", "setting": "JAWSII DCs; transwell, 300 ng/ml CCL19, counts at 6 hours", "value": "> 100", "unit": "ng/mL"}]}, {"substance": "vasoactive intestinal peptide (HSDAVFTDNYTRLRKQMAVKKYLNSILN; ends and bridges not checked; UniProt P01282 125-152, looked up) [VIP, candidate biofactor tested with GM-CSF]", "values": [{"measurement": "IL-10 production by induced DC", "setting": "[2]; BM cells with GM-CSF and named factor (100 ng/ml), 7 days, bacterial challenge", "value": "did not up-regulate"}, {"measurement": "expression of the proinflammatory cytokines IL-6 and IL-12 by induced DC", "setting": "[2]", "value": "diminished expression"}]}, {"substance": "transforming growth factor-beta [TGF-b]", "values": [{"measurement": "CD11c+/CD86+ in total BM cells", "setting": "[2]", "value": 10.5, "unit": "%"}, {"measurement": "expression of the proinflammatory cytokines IL-6 and IL-12 by induced DC", "setting": "[2]", "value": "diminished expression"}]}]}
